The values that follow come from patent US9359371B2, “Bicyclic substituted pyrimidine compounds” (Xuanzhu Pharma Co., Ltd., priority 2012, dated 2016).

One test deals with PDE-5A enzyme (Homo sapiens (Human), UniProt O76074). In words: Caliper Mobility-Shift PDE-5A Assay. Format: biochemical. As to conditions: Table 1; Avanafil value is the control.
In test [1] the target is PDE-5 enzyme (human blood platelets) (Homo sapiens (Human), UniProt O76074). In words: PDE-5 enzyme assay, [3H]cGMP. Format: biochemical.
For the next test, the target named is PDE-11 (Homo sapiens (Human), UniProt Q9HCR9). Description: Caliper Mobility-Shift PDE-11 Assay. The test is classed as biochemical. As to conditions: Table 4; maximum final concentration 10 μM. The procedure: Experiment 4: Measurement of Pharmacological Activity on PDE-11 Enzyme In Vitro
Method: enzyme assay, Caliper Mobility-Shift PDE-11 Assay
The test compound was accurately weighed, dissolved in DMSO, mixed thoroughly and formulated into 10 mM. The above stock solution was diluted to a concentration of 0.5 mM with DMSO, and then was gradiently diluted by a dilution factor of 3.162, resulting in 11 concentrations in total.
To a 96-well plate, 20 μL of 10 μM FL-cGMP as the substrate was added; then 1 μL solution of the compound in DMSO or DMSO solution without compound was added; and then 29 μL of 0.28 ng/μL PDE-11 enzyme buffer (100 mM Hepes pH 7.5, 5 mM MgCl2, 0.002% Brij-35) was added. The maximum final concentration of the compound was 10 μM. The plate was incubated at 30° C. for 1 h, and 20 μL of 70 μM EDTA was then added to stop the reaction. 26 μL of solution of each well was transferred to a 384-well plate. The conversion was read on a EZ reader II. The Inhibition rate was calculated by the formula below, and used to calculate IC50 by Prism 5.0 Inhibition rate=[Conversion (ZPE)−Conversion (sample)]×100/[Conversion (ZPE)−Conversion (HPE)]
Note: HPE: control without enzyme; ZPE: control without compound

For test [2], the system named is length of New Zealand rabbit's penis. Description: Pharmacological activity in vivo (intravenous injection), rabbit penis length. The arrangement: species or system New Zealand rabbits. The note with it: Table 5; iv 10 mg/kg, 1 mL/kg; sodium nitroprussiate 0.2 mg/kg iv 5 min after; 0-120 min. How it is done:
Experiment 5: Assay of Pharmacological Activity In Vivo (Intravenous Injection)
After accommodating with the environment, the New Zealand rabbits were grabbed everyday. When the rabbits were accustomed to the repeated grabbing, drug administration was began. The animals were randomly divided into groups by weight. The test compounds were separately dissolved in menstruum. […] The corresponding test compounds were injected into the auricular veins of animals of each group. The dosage of the compounds in Table 5 was 10 mg/kg, and the administration volume was 1 mL/kg. The dosage of the compounds in Table 6 was 10 mg/kg, and the administration volume was 2 mL/kg. 0.2 mg/kg sodium nitroprussiate was intravenously injected into the rabbits 5 min after the administration of the test compounds, with the administration volume of 0.5 mL/kg.
The length of the rabbit's penis was measured with a digital caliper before and 10, 15, 30, 50, 60, 90 and 120 min after the administration. Touch of the rabbit's penis by the caliper was avoided during the measurements.

For test [3] the test system is unchanged. In words: Pharmacological activity in vivo (oral administration, 70 mg/kg, with SNP), rabbit penis length. The arrangement: species or system New Zealand rabbits. The note with it: Table 8; oral 70 mg/kg; SNP 0.2 mg/kg iv 60 min after; 0-180 min. How it is done:
Experiment 7: Assay of Pharmacological Activity In Vivo (Oral Administration)
After accommodating with the environment, the New Zealand rabbits were grabbed everyday. When the rabbits were accustomed to the repeated grabbing, drug administration was began. The animals were randomly divided into groups by weight, with 6 rabbits of each group. […] The corresponding test compounds were orally administrated to animals of each group. The dosage was 70 mg/kg, and the administration volume was 1 mL/kg. SNP (0.2 mg/kg, 0.5 mL/kg) was injected into the auricular veins of rabbits 60 min after the administration of the test compounds. The length of the rabbit's penis was measured with a digital caliper before and 10, 15, 30, 50, 60, 65, 70, 75, 90, 110, 120 and 180 min after the administration. Touch of the rabbit's penis by the caliper was avoided during the measurements.

Structures are written as SMILES. Where two headings read alike, the source gives them in different places.

Sequence of PDE-11 (Q9HCR9 whole entry): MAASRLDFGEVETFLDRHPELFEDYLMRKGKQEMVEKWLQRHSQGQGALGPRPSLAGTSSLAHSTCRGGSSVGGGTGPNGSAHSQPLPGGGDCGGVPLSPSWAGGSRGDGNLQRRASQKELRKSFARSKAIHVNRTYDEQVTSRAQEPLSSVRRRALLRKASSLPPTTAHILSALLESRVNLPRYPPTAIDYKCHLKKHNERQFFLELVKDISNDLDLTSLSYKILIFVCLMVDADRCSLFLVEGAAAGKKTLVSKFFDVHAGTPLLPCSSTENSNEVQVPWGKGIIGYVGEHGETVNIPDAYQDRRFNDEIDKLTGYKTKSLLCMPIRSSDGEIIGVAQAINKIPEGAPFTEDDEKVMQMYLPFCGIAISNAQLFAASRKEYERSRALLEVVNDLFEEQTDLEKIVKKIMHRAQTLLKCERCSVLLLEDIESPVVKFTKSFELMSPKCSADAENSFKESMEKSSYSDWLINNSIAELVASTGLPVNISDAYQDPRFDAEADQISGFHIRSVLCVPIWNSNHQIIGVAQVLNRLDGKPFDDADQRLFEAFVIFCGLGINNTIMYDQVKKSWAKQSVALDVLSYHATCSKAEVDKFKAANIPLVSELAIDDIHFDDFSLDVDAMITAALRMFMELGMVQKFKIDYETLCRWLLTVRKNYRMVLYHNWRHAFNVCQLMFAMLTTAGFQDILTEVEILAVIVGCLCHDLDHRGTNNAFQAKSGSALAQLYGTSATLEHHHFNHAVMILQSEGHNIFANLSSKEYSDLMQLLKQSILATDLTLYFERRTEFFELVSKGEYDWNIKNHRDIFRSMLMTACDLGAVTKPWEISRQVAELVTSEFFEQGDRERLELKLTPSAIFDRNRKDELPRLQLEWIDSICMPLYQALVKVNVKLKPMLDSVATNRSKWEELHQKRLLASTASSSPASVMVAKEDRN

Broadly, the IC50 is the concentration needed to halve the response being measured. For the molecule `COc1ccc(CNc2nc(N3CC4CC4C3)ncc2C(=O)N[C@H]2CC[C@H](O)CC2)cc1Cl` (stereo partly drawn) [Compound 11, 2-(3-azabicyclo[3.1.0]hexan-3-yl)-4-((3-chloro-4-methoxybenzyl)amino)-N-(trans-4-hydroxycyclohexyl)pyrimidine-5-formamide], the IC50 on PDE-5A enzyme is 4.02 nM; in test [1] (Table 2-1, repetition, read-out: IC50 on PDE-5 (repetition of Example 2)), 0.41 nM; in test [1] (Table 2, human blood platelet enzyme, read-out: IC50 on PDE-5) it was 1.31 nM; in test [1] (Table 4-1, read-out: PDE-5 (IC50 nM)) it was 0.41 nM; on PDE-11 it was over 10000 nM. Besides, the “AUC of penis length” value is on record as 323.3 mm × min in test [2] and 540.7 mm × min in test [3].
